Measurements from ChEMBL document CHEMBL2034891, “Discovery, design and synthesis of Y-shaped peroxisome proliferator-activated receptor δ agonists as potent anti-obesity agents in vivo” (Eur J Med Chem, 2012).
Active and inactive are the calls of the source. The calls are words filed in the database; no cut-off is given here.

Tests used:
[1] = Clearance in ICR mouse at 10 mg/kg, po; assay type: ADME, organism-based; parameters: dose 10 mg/kg, route oral; conditions: in vivo
Mus musculus [2] = assay: Antiobesity activity in high-fat diet fed C57BL/6 mouse assessed as decrease in lipid accumulation on white adipose tissue at 10 mg/kg, po QD hematoxylin and eosin staining-based histological analysis; assay type: functional, organism-based; parameters: dose 10 mg/kg
Mus musculus [3] = assay: Antiobesity activity in high-fat diet fed C57BL/6 mouse assessed as decrease in serum triglyceride level at 10 mg/kg, po QD relative to vehicle-treated control; assay type: functional; parameters: scale not given: the % may be the effect or the level left
Homo sapiens = organism: Homo sapiens; assay: Selectivity ratio of EC50 for human PPARalpha to EC50 for human PPARdelta
Mus musculus [4] = assay: Antiobesity activity in high-fat diet fed C57BL/6 mouse assessed as increase in body weight at 10 mg/kg, po QD measured after 78 days (reference value: 102%); assay type: functional
[5] = molecular target: T1, Peroxisome proliferator-activated receptor alpha (Homo sapiens, UniProt Q07869); assay: Transactivation activity at human PPARalpha expressed in african green monkey CV1 cells after 24 hrs by luciferase reporter gene assay; assay type: cell-based, CV-1
T1 sequence (Q07869 whole entry): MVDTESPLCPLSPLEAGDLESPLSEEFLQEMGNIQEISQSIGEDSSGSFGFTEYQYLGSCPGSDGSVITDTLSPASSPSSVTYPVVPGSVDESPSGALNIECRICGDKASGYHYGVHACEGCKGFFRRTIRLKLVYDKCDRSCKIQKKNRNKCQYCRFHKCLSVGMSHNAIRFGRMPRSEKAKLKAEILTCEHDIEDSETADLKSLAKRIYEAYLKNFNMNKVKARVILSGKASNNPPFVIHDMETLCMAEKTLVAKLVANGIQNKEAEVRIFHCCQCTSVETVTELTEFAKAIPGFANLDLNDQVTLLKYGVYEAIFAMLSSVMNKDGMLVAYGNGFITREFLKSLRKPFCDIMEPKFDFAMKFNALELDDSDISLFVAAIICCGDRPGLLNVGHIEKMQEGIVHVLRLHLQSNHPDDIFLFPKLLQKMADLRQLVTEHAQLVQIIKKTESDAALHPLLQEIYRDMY

Mus musculus [6] = assay: AUMC in ICR mouse at 10 mg/kg, po; assay type: ADME, organism-based; parameters: dose 10 mg/kg, route oral; conditions: in vivo
[7] = molecular target: T2, Peroxisome proliferator-activated receptor delta (Homo sapiens, UniProt Q03181); assay: Binding affinity at human GST-tagged PPARdelta ligand binding domain after 1 hr by time-resolved FRET analysis
T2 sequence (Q03181 whole entry): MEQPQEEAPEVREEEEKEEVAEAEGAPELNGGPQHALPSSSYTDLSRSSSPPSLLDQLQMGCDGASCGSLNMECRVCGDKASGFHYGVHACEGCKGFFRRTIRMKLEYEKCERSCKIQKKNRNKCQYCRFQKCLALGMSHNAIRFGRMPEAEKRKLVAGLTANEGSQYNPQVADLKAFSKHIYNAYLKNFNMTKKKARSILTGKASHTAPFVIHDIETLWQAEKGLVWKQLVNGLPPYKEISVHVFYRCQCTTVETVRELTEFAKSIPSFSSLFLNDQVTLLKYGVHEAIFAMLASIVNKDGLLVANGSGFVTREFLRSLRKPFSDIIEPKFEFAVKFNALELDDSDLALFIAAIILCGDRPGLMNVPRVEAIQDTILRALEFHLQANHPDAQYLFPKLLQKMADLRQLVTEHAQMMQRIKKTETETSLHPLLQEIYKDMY

[8] = Mean residence time in ICR mouse at 10 mg/kg, po; assay type: ADME, organism-based; parameters: dose 10 mg/kg, route oral; conditions: in vivo
[9] = molecular target: T2, Peroxisome proliferator-activated receptor delta; assay: Transactivation activity at human PPARdelta expressed in african green monkey CV1 cells after 24 hrs by luciferase reporter gene assay; assay type: cell-based, CV-1
Mus musculus [10] = assay: Dose normalized AUC in ICR mouse at 10 mg/kg, po; assay type: ADME, organism-based; parameters: dose 10 mg/kg, route oral; conditions: in vivo
Mus musculus [11] = assay: AUMC in ICR mouse at 1 mg/kg, iv; assay type: ADME, organism-based; parameters: dose 1 mg/kg, route intravenous; conditions: in vivo
[12] = AUC in ICR mouse at 10 mg/kg, po; assay type: ADME, organism-based; parameters: dose 10 mg/kg, route oral; conditions: plasma
Mus musculus [13] = assay: Antiobesity activity in high-fat diet fed C57BL/6 mouse assessed as decrease in serum free fatty acid level at 10 mg/kg, po QD relative to vehicle-treated control; assay type: functional; parameters: scale not given: the % may be the effect or the level left
Mus musculus [14] = assay: Antiobesity activity in high-fat diet fed C57BL/6 mouse assessed as absence of fatty liver at 10 mg/kg, po QD hematoxylin and eosin staining-based histological analysis; assay type: functional, organism-based; parameters: dose 10 mg/kg
[15] = Cmax in ICR mouse at 1 mg/kg, iv; assay type: ADME, organism-based; parameters: dose 1 mg/kg, route intravenous; conditions: in vivo
[16] = Clearance in ICR mouse at 1 mg/kg, iv; assay type: ADME, organism-based; parameters: dose 1 mg/kg, route intravenous; conditions: in vivo
[17] = Terminal half life in ICR mouse at 1 mg/kg, iv; assay type: ADME, organism-based; parameters: dose 1 mg/kg, route intravenous; conditions: in vivo, read-out: beta t1/2 (converted)
Mus musculus [18] = assay: Dose normalized AUC in ICR mouse at 1 mg/kg, iv; assay type: ADME, organism-based; parameters: dose 1 mg/kg, route intravenous; conditions: in vivo
[19] = Tmax in ICR mouse at 10 mg/kg, po; assay type: ADME, organism-based; parameters: dose 10 mg/kg, route oral; conditions: in vivo
[20] = Oral bioavailability in ICR mouse at 10 mg/kg; assay type: ADME, organism-based; conditions: in vivo
[21] = Mean residence time in ICR mouse at 1 mg/kg, iv; assay type: ADME, organism-based; parameters: dose 1 mg/kg, route intravenous; conditions: in vivo
Mus musculus [22] = assay: Antiobesity activity in high-fat diet fed C57BL/6 mouse assessed as decrease in lipid accumulation on brown adipose tissue at 10 mg/kg, po QD hematoxylin and eosin staining-based histological analysis; assay type: functional, organism-based; parameters: dose 10 mg/kg
[23] = Terminal half life in ICR mouse at 10 mg/kg, po; assay type: ADME, organism-based; parameters: dose 10 mg/kg, route oral; conditions: in vivo, read-out: beta t1/2 (converted)
[24] = molecular target: T3, Peroxisome proliferator-activated receptor gamma (Homo sapiens, UniProt P37231); assay: Transactivation activity at human PPARgamma expressed in african green monkey CV1 cells after 24 hrs by luciferase reporter gene assay; assay type: cell-based, CV-1
T3 sequence (P37231 whole entry): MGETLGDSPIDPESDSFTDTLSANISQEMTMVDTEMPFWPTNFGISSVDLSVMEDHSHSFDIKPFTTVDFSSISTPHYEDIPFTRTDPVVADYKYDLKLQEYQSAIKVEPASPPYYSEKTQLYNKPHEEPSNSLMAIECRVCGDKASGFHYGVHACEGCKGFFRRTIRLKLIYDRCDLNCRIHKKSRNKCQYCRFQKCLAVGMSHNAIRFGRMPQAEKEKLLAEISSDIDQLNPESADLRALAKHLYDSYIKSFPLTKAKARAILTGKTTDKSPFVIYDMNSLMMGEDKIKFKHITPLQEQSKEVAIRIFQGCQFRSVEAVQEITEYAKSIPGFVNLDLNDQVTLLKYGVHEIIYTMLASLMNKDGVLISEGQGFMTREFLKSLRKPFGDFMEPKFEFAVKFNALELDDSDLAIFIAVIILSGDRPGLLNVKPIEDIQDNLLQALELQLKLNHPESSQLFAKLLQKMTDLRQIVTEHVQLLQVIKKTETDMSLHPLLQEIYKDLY

Mus musculus [25] = assay: Volume of distribution at steady state in ICR mouse at 10 mg/kg, po; assay type: ADME, organism-based; parameters: dose 10 mg/kg, route oral; conditions: in vivo
Mus musculus [26] = assay: Toxicity in high-fat diet fed C57BL/6 mouse assessed as decrease in food intake at 10 mg/kg, po QD relative to control; assay type: organism-based; parameters: dose 10 mg/kg, route oral; conditions: in vivo
[27] = Cmax in ICR mouse at 10 mg/kg, po; assay type: ADME, organism-based; parameters: dose 10 mg/kg, route oral; conditions: in vivo
[28] = AUC in ICR mouse at 1 mg/kg, iv; assay type: ADME, organism-based; parameters: dose 1 mg/kg, route intravenous; conditions: plasma
[29] = Tmax in ICR mouse at 1 mg/kg, iv; assay type: ADME, organism-based; parameters: dose 1 mg/kg, route intravenous; conditions: in vivo
[30] = Volume of distribution at steady state in ICR mouse at 1 mg/kg, iv; assay type: ADME, organism-based; parameters: dose 1 mg/kg, route intravenous; conditions: in vivo, read-out: Vdss

For `Cc1cc(SC(Cc2ccccc2)c2sc(-c3ccc(C(F)(F)F)cc3)nc2C)ccc1OCC(=O)O` (stereo unspecified), the CL/F [1] was 0.47 mL/min/kg, the Activity (Mus musculus [2]) was “Active” and the Activity (Mus musculus [3]) was 29%. For the same compound, the Ratio EC50 (Homo sapiens) was 10000, the Activity (Mus musculus [4]) was 60% and the EC50 [5] was over 10000 nM. For the same compound, the AUMC (Mus musculus [6]) was 3340 hr.hr.ug/ml, the EC50 [7] was 13 nM and the MRT [8] was 9.32 h. For the same compound, the EC50 [9] was 1.6 nM, the AUC/dose (Mus musculus [10]) was 35.7 kg·µg·h/mL/mg and the AUMC (Mus musculus [11]) was 243 hr.hr.ug/ml. The AUC [12] was 357 µg·h/mL, the Activity (Mus musculus [13]) was 26% and the Activity (Mus musculus [14]) was “Active”. The Cmax [15] was 8980 ng/mL, the clearance [16] was 0.41 mL/min/kg and the half-life [17] was 3.69 h. The AUC/dose (Mus musculus [18]) was 40.6 kg·µg·h/mL/mg, the Tmax [19] was 2.75 h and the bioavailability [20] was 88%. For the same compound, the MRT [21] was 5.98 h, the Activity (Mus musculus [22]) was “Active” and the half-life [23] was 5.27 h. For the same compound, the EC50 [24] was over 10000 nM, the Vdss (Mus musculus [25]) was 0.212 L/kg and the Activity (Mus musculus [26]) was “Non-toxic”. The Cmax [27] was 37900 ng/mL, the AUC [28] was 40.6 µg·h/mL and the Tmax [29] was 0.33 h. It also gave a Vd [30] of 0.131 L/kg.
